From patent US20250281497A1, “FUSED AMINO PYRIMIDINE COMPOUNDS FOR TREATMENT OF SEIZURE DISORDERS” (Ovid Therapeutics Inc., priority 2024, published 2025)

Columns and labels:
[1] = target: T1, KCC4 (Homo sapiens, UniProt Q9Y666); assay: Tl+ assay, HEK-293 cells expressing KCC4; assay type: cell-based; details: read-out: concentration at which effects on KCC4 were seen (EC50 chart FIG. 1G)
T1 construct: expressed in transfected cells; host or cells: HEK-293
T1 sequence (Q9Y666 1-1083): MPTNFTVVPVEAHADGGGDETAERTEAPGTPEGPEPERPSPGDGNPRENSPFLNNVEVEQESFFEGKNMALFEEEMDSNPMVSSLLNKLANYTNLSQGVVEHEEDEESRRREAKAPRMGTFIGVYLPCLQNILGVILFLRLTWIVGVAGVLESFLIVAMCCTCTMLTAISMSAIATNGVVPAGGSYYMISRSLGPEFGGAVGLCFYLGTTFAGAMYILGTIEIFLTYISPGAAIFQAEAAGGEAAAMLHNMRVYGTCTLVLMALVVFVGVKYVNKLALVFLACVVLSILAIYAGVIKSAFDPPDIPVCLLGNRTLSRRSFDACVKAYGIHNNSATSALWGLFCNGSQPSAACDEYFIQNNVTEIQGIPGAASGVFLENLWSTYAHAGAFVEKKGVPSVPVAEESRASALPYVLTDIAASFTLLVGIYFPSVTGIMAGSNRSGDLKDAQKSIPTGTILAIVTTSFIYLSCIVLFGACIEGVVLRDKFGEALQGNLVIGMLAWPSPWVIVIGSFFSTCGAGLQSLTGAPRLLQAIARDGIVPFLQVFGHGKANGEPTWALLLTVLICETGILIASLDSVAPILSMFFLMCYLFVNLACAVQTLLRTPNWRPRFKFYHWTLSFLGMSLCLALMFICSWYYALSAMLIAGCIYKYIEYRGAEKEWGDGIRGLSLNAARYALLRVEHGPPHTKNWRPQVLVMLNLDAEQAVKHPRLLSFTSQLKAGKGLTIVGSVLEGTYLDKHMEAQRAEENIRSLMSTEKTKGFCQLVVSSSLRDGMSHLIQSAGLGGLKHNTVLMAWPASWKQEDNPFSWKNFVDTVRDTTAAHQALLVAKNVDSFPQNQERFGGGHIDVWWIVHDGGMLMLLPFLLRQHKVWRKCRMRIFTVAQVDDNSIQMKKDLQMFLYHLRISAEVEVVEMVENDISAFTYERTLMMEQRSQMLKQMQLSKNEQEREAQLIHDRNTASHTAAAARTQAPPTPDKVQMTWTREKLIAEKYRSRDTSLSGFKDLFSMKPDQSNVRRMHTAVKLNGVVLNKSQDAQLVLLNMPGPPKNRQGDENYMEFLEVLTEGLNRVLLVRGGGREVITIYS
Description: FLIPR TI Flux assay. HEK-293 cells were washed with HBSS, and then incubated with loading buffer containing TI sensitive fluorescent dye (https://www.moleculardevices.com), 20 μM bumetanide 20 μM ouabain and 2.5 mM probenecid for 1 h at room temperature (RT) under control conditions or with drugs in the dark using a FlexStation 3 microplate reader (Molecular Devices) and imaged […] for 30 min. Stimulus buffer was added containing 5 mM K^+/0.5 mM Tl^+ and cells were imaged every 1.5 over a 190 second time course The initial rate Tl^+ uptake (Relative Fluorescence Units (RFU) per second) was determined following addition of the stimulus buffer as outlined previously (Conway et at, 2017, supra) (Lee et at, 2022, supra).
Several studies have shown that the activity and plasma membrane accumulation of KCC2 is potentiated via phosphorylation of S940, a process mediated by the activity of protein kinase C and protein phosphatase 1 (Lee et al., 2011, supra; Lee et al., J Biol Chem 282, 29777-29784 (2007); Moore et al., Proc. Natl. Acad. Sci. U.S.A. 115, 10166-10171 (2018); Moore et al., Trends Neurosci. 40, 555-571 (2017); Silayeva et al., Proc. Natl. Acad. Sci. U.S.A. 112, 3523-3528 (2015)). […] Compared to KCC2, effects on KCC3, KCC4, and NKCC1 were only seen at concentrations more than 35-fold that of KCC2 (>100 μM) (FIG. 1G).

[2] = tested on: hippocampal neurons; assay: Gramicidin perforated patch clamp, EGABA in hippocampal neurons; assay type: cell-based, Sprague Dawley; details: 300 nM
Description: Neuronal Cultures. Hippocampal neurons were prepared from Sprague Dawley E18 embryos and plated at 450,000 per dish and maintained at 37° C. in a humidified 5% CO2 incubator for 10-25 days before experimentation (Lee et al., Nat. Neurosci. 14, 736-743 (2011)).
At this developmental stage, GABAAR receptor activation leads to hyperpolarization, a phenomenon critically dependent upon KCC2 (Kontou et al., J Biol Chem, 100364 (2021)).
Neuronal Patch clamp assays. Neuronal cell culture recordings were performed in bath saline at 34° C. For gramicidin perforated-patch experiments, pipettes contained (in mM): 140 KCl and 10 HEPES, pH 7.4 KOH. For whole-cell experiments, pipettes contained (in mM): 115 K-meth-SO^4, 30 KCl, 2 Mg-ATP, 4 Na-ATP, 0.4 Na-GTP, and 10 HEPES, pH 7.4 KOH. Bath saline contained the following (in mM): 140 NaCl, 2.5 KCl, 2.5 CaCl2, 2.5 MgCl2, 10 HEPES, and 11 glucose, pH 7.4 NaOH (Kontou et at, 2021, supra). All compound solutions were applied to cells using a three-barreled 700 μm pipe positioned just above the cell (Warner Instruments). […] All voltages from whole-cell experiments were corrected offline using a calculated liquid junction potential value (13.6 mV) in Clampex (Molecular Devices). For gramicidin perforated-patch experiments, intracellular Cl^− values were back-calculated using measured EGABA values and the Nernst equation: […]

[3] = tested on: brain slices; assay: In vitro seizure assay, brain slices in 0-Mg ACSF, field recording in entorhinal cortex; parameters: species or system mice; details: Compound A 1 μM
Description: In vitro seizure assays. […] Slices were then transferred to a Warner Instruments recording chamber and electrodes of 0.5-1 mohm were inserted into layer IIII of the medial entorhinal cortex, several cell layers deep. […] The field recordings were then employed to monitor the development of seizure-like events (SLEs) and their transition to late recurrent discharges (LRDs) which are believed to be analogous to the development of status epilepticus (SE) (Kelley et al., 2016, supra; Moore et al., 2018, supra).

## C[C@@H]1CN(c2nc3c(c(Nc4ccc(C5CCCCC5)cc4)n2)COC3)CCO1 [Compound A, (R)—N-(4-cyclohexylphenyl)-2-(2-methylmorpholino)-5,7-dihydrofuro[3,4-d]pyrimidin-4-amine]
[1]
  EC50: > 100 µM
[2]; 15 min, from EGABA by Nernst equation
  reduction in Cl−: 2.2 ± 0.6 mM
[2]; from −75±3.1 at 0 min, bumetanide and TTX present
  EGABA at 15 min: −85.1±4.2 mV
[3]; vehicle=10.5±2.6
  time to first seizure-like event (SLE): 11.3 ± 3.3 min
[3]; vehicle=12.4±4.1
  time to late recurrent discharges (LRDs): 28.4 ± 6.4 min
